Data set [1] addresses T1, Free fatty acid receptor 1 (Homo sapiens, UniProt O14842). The experiment in a line: Agonist activity at GPR40 (unknown origin) expressed in CHO cells assessed as luminescence for 20 seconds interval by aequorin assay in presence of 0.01% human serum albumin relative to AM-1638. The class given is cell-based.
The target in data set [2] is T1, Free fatty acid receptor 1. The experiment in a line: Agonist activity at GPR40 (unknown origin) expressed in CHO cells assessed as luminescence for 20 seconds interval by aequorin assay in presence of 0.01% human serum albumin. Format: cell-based.
In data set [3] the target is T1, Free fatty acid receptor 1. The data set can be described thus: Agonist activity at GPR40 (unknown origin) expressed in mouse A9 cells assessed as inositol phosphate accumulation using [myo-3H]inositol after 1 hr by scintillation counting in presence of 0.3% human serum albumin relative to AM-1638. The class given is functional, cell-based.
Data set [4] is described as follows: Clearance in rat at 0.5 mg/kg, iv. Format: ADME, organism-based. Details: dose 0.5 mg/kg, route intravenous. The note with it: in vivo.
Data set [5] in a line: Half life in rat at 0.5 mg/kg, iv. The class given is ADME, organism-based. Details: dose 0.5 mg/kg, route intravenous. The note with it: in vivo.
Data set [6] deals with T1, Free fatty acid receptor 1. The experiment in a line: Agonist activity at GPR40 (unknown origin) expressed in mouse A9 cells assessed as inositol phosphate accumulation using [myo-3H]inositol after 1 hr by scintillation counting in presence of 0.3% human serum albumin. Format: functional, cell-based.
Data set [7] in a line: Oral bioavailability in rat at 2 mg/kg. As to conditions: in vivo. Format: ADME, organism-based.
Data set [8] can be described thus: Intrinsic clearance in rat liver microsomes at 1 uM after 30 mins. As to conditions: read-out: CLH. Format: ADME. In general terms: Liver microsomes are a subcellular fraction often used to study metabolism.
Data set [9] can be described thus: Intrinsic clearance in human liver microsomes at 1 uM after 30 mins. Format: ADME. As to conditions: read-out: CLH.
In data set [10] the test system is Mus musculus. The experiment in a line: Antidiabetic activity in diet-induced obesity BDF1 mouse model assessed as reduction of blood glucose level at 3 mg/kg, po up to 120 mins by oral glucose tolerance test. Format: functional, organism-based. Details: dose 3 mg/kg.
The subject of data set [11] is Mus musculus. The experiment in a line: Antidiabetic activity in diet-induced obesity BDF1 mouse model assessed as reduction of blood glucose level at 0.3 mg/kg, po up to 120 mins by oral glucose tolerance test. Format: functional, organism-based. On the set-up: dose 0.3 mg/kg.
The test system of data set [12] is Mus musculus. The data set can be described thus: Antidiabetic activity in diet-induced obesity BDF1 mouse model assessed as reduction of blood glucose level at 3 to 10 mg/kg, po up to 120 mins by oral glucose tolerance test. The class given is functional, organism-based.
The test system of data set [13] is Mus musculus. The data set can be described thus: Antidiabetic activity in high fat fed C57/Bl6 mouse streptozotocin-induced type 2 diabetic model assessed as reduction of blood glucose level at 60 mg/kg, po up to 120 mins by oral glucose tolerance test. Format: functional, organism-based. Details: dose 60 mg/kg.
Data set [14] concerns Mus musculus. The experiment in a line: Antidiabetic activity in high fat fed C57/Bl6 mouse streptozotocin-induced type 2 diabetic model assessed as reduction of blood glucose level at 30 mg/kg, po up to 120 mins by oral glucose tolerance test. The class given is functional, organism-based. On the set-up: dose 30 mg/kg.
The test system of data set [15] is Mus musculus. The experiment in a line: Induction of GLP-1 release in po dosed high fat fed C57/Bl6 mouse streptozotocin-induced type 2 diabetic model. Format: functional, organism-based.
In data set [16] the test system is Mus musculus. The data set can be described thus: Antidiabetic activity in po dosed high fat fed C57/Bl6 mouse streptozotocin-induced type 2 diabetic model assessed as reduction of blood glucose level up to 120 mins by oral glucose tolerance test. Format: functional, organism-based.
Data set [17] relates to Mus musculus. The data set can be described thus: Antidiabetic activity in diet-induced obesity BDF1 mouse model assessed as reduction of blood glucose level at 30 mg/kg, po up to 120 mins by oral glucose tolerance test. Format: functional, organism-based. On the set-up: dose 30 mg/kg.

Activity calls are given as the source filed them.

T1 sequence (O14842 whole entry): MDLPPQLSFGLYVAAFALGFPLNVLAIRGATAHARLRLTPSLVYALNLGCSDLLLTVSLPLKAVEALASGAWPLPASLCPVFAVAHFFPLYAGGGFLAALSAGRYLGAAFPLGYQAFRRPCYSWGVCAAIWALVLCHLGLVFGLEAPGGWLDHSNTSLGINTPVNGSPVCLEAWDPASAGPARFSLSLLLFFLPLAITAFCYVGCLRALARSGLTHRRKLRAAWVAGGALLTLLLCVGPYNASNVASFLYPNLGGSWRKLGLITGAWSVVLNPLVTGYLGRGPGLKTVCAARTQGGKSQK

Usually Emax stands for the maximal effect, on the per cent scale that the assay sets. As usually defined, the EC50 is the concentration needed to bring the measured effect to its halfway point. `COc1ccc(F)c(-c2ccc(COc3cccc([C@@H](CC(=O)O)C4CC4)c3)cc2[C@@H]2OCCCC2(C)C)c1`: in data set [1], the Emax amounted to 96%. Further, the EC50 in data set [2] stood at 0.227 µM.

For orientation: clearance means the volume of plasma or blood freed of the substance per unit of time. In general, half-life refers to the time needed for the level to fall by half in the phase considered. Usually bioavailability stands for dose-corrected exposure relative to a reference, in per cent. For `COc1cc(-c2ccc(COc3ccc4c(c3)[C@@](C)(CC(=O)O)CC4)cc2[C@@H]2CCCC2(C)C)c(F)cn1`, the Emax in data set [3] and in data set [1] was 100% throughout. In data set [4], this compound showed a clearance of 7.5 mL/min/kg. Moreover, in data set [5], the half-life was 3.7 h. Further, the EC50 in data set [6] was 0.0034 µM; in [2], 0.128 µM. Besides, the bioavailability in data set [7] is 10%.

For `COc1cc(-c2ccc(COc3cc([C@H](C)CC(=O)O)ccn3)cc2[C@@H]2CCCC2(C)C)c(F)cn1`, the Emax in data set [3] was 100%; in data set [1] it was 136%. Moreover, the values for the EC50 in [6] and in data set [2] were 0.019 µM and 0.281 µM, respectively.

For the compound `COc1cc(-c2ccc(COc3cc4c(cn3)CC[C@]43C[C@H]3C(=O)O)cc2[C@H](OC)C(C)(C)C)c(F)cn1`, the Emax in data set [3] was 122%; in data set [1], 85%. Further, in [4], the clearance was 28.3 mL/min/kg. Also, the half-life in data set [5] was 1.2 h. Moreover, the EC50 came out at 0.37 µM in data set [6] and 0.25 µM in data set [2].

`COc1ccc(F)c(-c2ccc(COc3cccc([C@@H](CC(=O)O)C4CC4)c3)cc2CC(C)(C)C)c1` showed a clearance in data set [4] of 20 mL/min/kg. The compound further showed a half-life in data set [5] of 1.2 h. In [1], the Emax came out at 102%. Moreover, the EC50 in data set [2] is 0.088 µM.

Consider `COc1cc(-c2ccc(COc3cccc([C@@H](CC(=O)O)C4CC4)c3)cc2C2=CCCC2(C)C)c(F)cn1`, for which the Emax in [1] turned out to be 100%. For the same compound, the EC50 in [2] was 0.12 µM.

On to `COc1ccc(F)c(-c2ccc(COc3cccc([C@@H](CC(=O)O)C4CC4)c3)cc2[C@@H]2CCCC2(C)C)c1`, for which the microsomal CLint at 1 µM turned out to be 219 µL/min/mg in data set [8] and 52 µL/min/mg in data set [9]. The compound also showed a clearance in data set [4] of 11.7 mL/min/kg. For the same compound, the half-life in data set [5] is 2 h. In data set [1], the Emax worked out at 101%. Besides, the bioavailability in data set [7] came to 34%. Further, in data set [2], the EC50 is 0.076 µM.

In the case of `CCC[C@H](CC(=O)O)c1cccc(OCc2ccc(-c3cccc(OC)c3)c(C(C)(C)C)c2)c1`, the Emax in data set [1] turned out to be 94%. Moreover, the EC50 in data set [2] was determined as 0.37 µM.

For the compound `COc1ccc(F)c(-c2ccc(COc3cccc([C@@H](CC(=O)O)C4CC4)c3)cc2[C@H](OC)C(C)(C)C)c1`, the clearance in data set [4] was 4.67 mL/min/kg. Further, the half-life in data set [5] was 3.5 h. In addition, in data set [1], the Emax is 105%. For the same compound, the EC50 in [2] turned out to be 0.147 µM.

As to `CCO[C@@H](c1cc(COc2cccc([C@@H](CC(=O)O)C3CC3)c2)ccc1-c1cc(OC)ccc1F)C(C)(C)C`, in data set [4], the clearance is 5.33 mL/min/kg. Further, the half-life in data set [5] was 3.9 h. Moreover, the Emax in data set [1] came out at 101%. Also, in [2], the EC50 turned out to be 0.114 µM.

With `CCC[C@H](CC(=O)O)c1cccc(OCc2ccc(-c3cccc(OC)n3)c(C(C)(C)C)c2)c1`, the Emax in data set [1] was 61%. In [2], the EC50 turned out to be 3.7 µM.

Take `COc1ccc(F)c(-c2ccc(COc3cccc([C@@H](CC(=O)O)C4CC4)c3)cc2[C@@H](OC)C(C)(C)C)c1`: the Emax in data set [1] was 98%. Further, in data set [2], the EC50 was 1.41 µM.

Turning to `COc1cc(-c2ccc(COc3cc4c(cn3)CC[C@]43C[C@H]3C(=O)O)cc2[C@@H]2CCCC2(C)C)c(F)cn1`, the Emax was 97% in [3] and 98% in data set [1]. Besides, the clearance in data set [4] is 4.33 mL/min/kg. The compound also showed a half-life in data set [5] of 3.6 h. The EC50 turned out to be 0.022 µM in [6] and 0.249 µM in [2]. The compound further showed a bioavailability in data set [7] of 58%.

`COc1cc(-c2ccc(COc3cccc([C@@H](CC(=O)O)C4CC4)c3)cc2[C@@H]2CCCC2(C)C)c(F)cn1`: the microsomal CLint at 1 µM in [8] stood at 67 µL/min/mg; in [9], 21 µL/min/mg. In data set [4], this compound had a clearance of 1.67 mL/min/kg. Also, the half-life in [5] is 3.5 h. Besides, in data set [1], the Emax stood at 95%. In data set [7], the bioavailability stood at 34%. Moreover, in data set [2], the EC50 amounted to 0.068 µM.

Regarding `CC[C@H](CC(=O)O)c1ccnc(OCc2ccc(-c3cc(OC)ncc3F)c([C@@H]3CCCC3(C)C)c2)c1`, the Emax in data set [3] was determined as 102%; in data set [1], 99%. This compound also gave a clearance in data set [4] of 2.5 mL/min/kg. In data set [5], this compound showed a half-life of 8.2 h. For the same compound, the EC50 in data set [6] came out at 0.006 µM; in [2] it was 0.15 µM. In addition, the bioavailability in data set [7] amounted to 83%.

With `COc1cc(-c2ccc(COc3ccc4c(c3)[C@@](C)(CC(=O)O)CC4)cc2[C@H](OC)C(C)(C)C)c(F)cn1`, the results for the Emax in [3] and in [1] were 101% and 106%, respectively. In [4], this compound had a clearance of 4.17 mL/min/kg. This compound gave a half-life in data set [5] of 4 h. Moreover, the EC50 in [6] is 0.0067 µM; in [2], 0.235 µM. Also, the bioavailability in [7] amounted to 21%.

On to `COc1cc(-c2ccc(COc3cc([C@@H](CC(=O)O)C4CC4)ccn3)cc2[C@@H]2CCCC2(C)C)c(F)cn1`, for which the Emax turned out to be 100% in [3] and 110% in data set [1]. In data set [4], this compound gave a clearance of 1.43 mL/min/kg. For the same compound, the half-life in [5] was 9.7 h. For the same compound, the results for the 50% effective concentration (EC50) in data set [6] and in [2] were 0.0017 µM and 0.108 µM, respectively. This compound came in with a bioavailability in data set [7] of 37%.

Regarding `COc1ccc(F)c(-c2ccc(COc3cccc([C@@H](CC(=O)O)C4CC4)c3)cc2[C@H](F)C(C)(C)C)c1`, the Emax in [1] was determined as 100%. Besides, the EC50 in [2] is 0.105 µM.

Turning to `COc1cc(-c2ccc(COc3cc([C@@H](CC(=O)O)C4CC4)ccn3)cc2[C@H](OC)C(C)(C)C)c(F)cn1`, the values for the Emax in data set [3] and in [1] were 100% and 94%, respectively. Also, the clearance in [4] was 1.02 mL/min/kg. The half-life in [5] is 8.1 h. The outcome in the data set with Mus musculus [10], in the data set with Mus musculus [11] and in the data set on Mus musculus [12] was Active. The EC50 in data set [6] came out at 0.0006 µM; in [2], 0.162 µM. This compound also yielded a bioavailability in data set [7] of 54%.

Consider `CCC[C@H](CC(=O)O)c1cccc(OCc2ccc(-c3cncc(OC)c3)c(C(C)(C)C)c2)c1`, for which the Emax in [1] is 72%. In addition, the 50% effective concentration (EC50) in data set [2] came to 30 µM.

In the case of `COc1ccc(F)c(-c2ccc(COc3cccc([C@@H](CC(=O)O)C4CC4)c3)cc2C2=CCCC2(C)C)c1`, the result in the data set with Mus musculus [13] was Active.

On to `COc1cc(-c2ccc(COc3cccc([C@@H](CC(=O)O)C4CC4)c3F)cc2[C@@H]2CCCC2(C)C)c(F)cn1`, for which the figures for the microsomal CLint at 1 µM in [8] and in data set [9] were 52 µL/min/mg and 15 µL/min/mg, respectively. For the same compound, the outcome in the data set with Mus musculus [14] and in the data set on Mus musculus [17] was Active. The compound also had a clearance in [4] of 2.83 mL/min/kg. The compound further gave a half-life in data set [5] of 4.6 h. In addition, the Activity result with Mus musculus [15] and in the data set on Mus musculus [16] was “Dose-dependent effect” each time. Further, the maximal effect (Emax) in data set [1] came to 102%. The compound further displayed a bioavailability in [7] of 98%. For the same compound, the EC50 in data set [2] was determined as 0.093 µM.
